Experiment [1] has as its system TNFα production in human whole blood. Put plainly: Inhibition of the production of TNFα in vitro in human whole blood (Test Examples 1 and 1′). It is filed as cell-based. The conditions noted are these: 6 hours at 37° C., plasma TNFα by ELISA; for IC50: Table 3, lipopolysaccharide 10 μg/ml, read-out: Inhibitory Effect on TNFα Production [IC50 (μM)]; for pIC50: Table 7′, lipopolysaccharide 10 μg/ml, least squares, read-out: Inhibitory Effect on TNFα Production (in vitro) IC50. On the procedure: (§1) Inhibition of the Production of the Cytokines IL-1β and TNFα in Vitro in Human Whole Blood
(§2) This test was performed according to the method of Hartman, et al. [D. A. Hartman, S. J. Ochalski and R. P. Carlson; The effects of anti-inflammatory and antiallergic drugs on cytokine release after stimulation of human whole blood by lipopolysaccharide and zymosan A: Inflamm. Res., 44, 269 (1995)].
(§3) Peripheral blood samples were collected in the presence of heparin from healthy adult volunteers. 1000 μl of whole blood were added to an Eppendorf tube to which 2 μl of a dimethyl sulfoxide solution of the test compound had been added in advance, after which 10 μl of lipopolysaccharide (E. coli 026: B6 origin, Difco) were added as a stimulant (final concentration of said lipopolysaccharide: 10 μg/ml). This was mixed well and then incubated for 6 hours at 37° C. in the presence of 5% CO2. At the end of the incubation, the mixture was cooled to 4° C. to stop the reaction, followed immediately by centrifuging for 5 minutes at 14,000 rpm to separate and collect the supernatant plasma. The IL-1β and TNFα produced and released into the plasma were measured using a commercially available enzyme immunoassay (ELISA) kit [Cayman (IL-1β) and Genzyme (TNFα)]. The procedure was also repeated in the absence of test compound. The inhibitory effect [IC50 (μM)] on the production of IL-1β and TNFα was determined from the amounts of the cytokines produced in the presence and absence of the test compound.
(§4) Inhibition of the Production of the Cytokines IL-1β and TNFα In Vitro in Human Whole Blood
as §3, with “O26:” for “026:”, “plasma” for “plasma.”, “kits” for “kit”, “determined by the method of least squares” for “determined”

Experiment [2] has as its system IL-1β production in human whole blood. As to the kind of experiment: Inhibition of the production of IL-1β in vitro in human whole blood (Test Examples 1 and 1′). Type of experiment: cell-based. The conditions noted are these: Table 8′, lipopolysaccharide 10 μg/ml, 6 hours at 37° C., plasma IL-1β by ELISA, least squares, read-out: Inhibitory Effect on IL-1β Production (in vitro) IC50. On the procedure:
as §1, §2, §3, §4
as §3, with “O26:” for “026:”, “plasma” for “plasma.”, “kits” for “kit”, “determined by the method of least squares” for “determined”
A general note: In an ELISA, binding on a coated surface is turned into a signal by an enzyme label.

pIC50: −log10 of the molar value. Where two headings read alike, the source gives them in different places.

Take `Fc1ccc(-c2[nH]cc(C3=CC4CCC(C3)N4)c2-c2ccncc2)cc1` (racemic) [Example 45, (±)-4-(8-Azabicyclo[3.2.1]oct-2-en-3-yl)-2-(4-fluorophenyl)-3-(pyridin-4-yl)-1H-pyrrole]: the IC50 (as a rule, the midpoint of a concentration-inhibition curve) in experiment [1] was determined as 0.14 µM. In the case of `Fc1ccc(-c2[nH]cc(C3=CC4CC5(CCCC5)CN4CC3)c2-c2ccncc2)cc1` (racemic) [Example 47′, (±)-4-[Cyclopentanespiro-2′-(1′,2′,3′,5′,6′,8a′-hexahydroindolizin)-7′-yl]-2-(4-fluorophenyl)-3-(pyridin-4-yl)-1H-pyrrole], the values for the pIC50 in experiment [1] and in experiment [2] were 8.00 and 7.48, respectively. Consider `Fc1ccc(-c2[nH]cc(C3=CC4CCCN4CC3)c2-c2ccncc2)cc1` (racemic) [Example 60, (±)-2-(4-Fluorophenyl)-4-(1,2,3,5,6,8a-hexahydroindolizin-7-yl)-3-(pyridin-4-yl)-1H-pyrrole], for which the IC50 in experiment [1] came out at 0.047 µM.

Turning to `CCCN1CCC(c2c[nH]c(-c3ccc(F)cc3)c2-c2ccncc2)=CC1C` (racemic) [Example 85, (±)-2-(4-Fluorophenyl)-4-(6-methyl-1-propyl-1,2,3,6-tetrahydropyridin-4-yl)-3-(pyridin-4-yl)-1H-pyrrole], the IC50 in experiment [1] worked out at 0.44 µM. For the molecule `CCCN1CC=C(c2c[nH]c(-c3ccc(F)cc3)c2-c2ccncc2)CC1C` (racemic) [Example 86, (±)-2-(4-Fluorophenyl)-4-(2-methyl-1-propyl-1,2,3,6-tetrahydropyridin-4-yl)-3-(pyridin-4-yl)-1H-pyrrole], in experiment [1], the IC50 was determined as 0.29 µM. Still for that read-out and setting: as for `Fc1ccc(-c2[nH]cc(C3=CC4CCCCN4CC3)c2-c2ccncc2)cc1` (racemic) [Example 87, (±)-2-(4-Fluorophenyl)-4-(1,3,4,6,7,9a-hexahydro-2H-quinolizin-8-yl)-3-(pyridin-4-yl)-1H-pyrrole], the figure is 0.31 µM; as for `Fc1ccc(-c2[nH]cc(C3=CC4CCCN4CC3)c2-c2ccncc2)cc1F` (racemic) [Example 92, (±)-2-(3,4-Difluorophenyl)-4-(1,2,3,5,6,8a-hexahydroindolizin-7-yl)-3-(pyridin-4-yl)-1H-pyrrole], 0.045 µM. Take `FC(F)(F)c1cccc(-c2[nH]cc(C3=CC4CCCN4CC3)c2-c2ccncc2)c1` (racemic) [Example 94, (±)-4-(1,2,3,5,6,8a-Hexahydroindolizin-7-yl)-3-(pyridin-4-yl)-2-(3-trifluoromethylphenyl)-1H-pyrrole]: in experiment [1], the IC50 was found to be 0.031 µM. Take `Fc1ccc(-c2[nH]c(C3CCNCC3)cc2-c2ccncc2)cc1` [Compound A, reference compound]: in experiment [1], the IC50 came to 1.9 µM and the pIC50 (usually −log10 of the IC50, conventionally taken in molar units) is 5.72. For `Fc1ccc(-c2ncn(C3CCNCC3)c2-c2ccncc2)cc1` [Compound B, reference compound], in that order: 1.73 µM and 5.76. Consider `CO[C@@H]1C[C@H]2C=C(c3c[nH]c(-c4ccc(F)cc4)c3-c3ccncc3)CCN2C1` [Example 2′, 2-(4-Fluorophenyl)-4-[(2R,8aS)-2-methoxy-1,2,3,5,6,8a-hexahydroindolizin-7-yl]-3-(pyridin-4-yl)-1H-pyrrole], for which the figures for the pIC50 in experiment [1] and in experiment [2] were 7.21 and 7.51, respectively. For `O[C@@H]1C[C@H]2C=C(c3c[nH]c(-c4ccc(F)cc4)c3-c3ccncc3)CCN2C1` [Example 4′, 2-(4-Fluorophenyl)-4-[(2R,8aS)-2-hydroxy-1,2,3,5,6,8a-hexahydroindolizin-7-yl]-3-(pyridin-4-yl)-1H-pyrrole], in that order: 7.27 and 7.39. As for `Fc1ccc(-c2[nH]cc(C3=C[C@@H]4C[C@H](Cl)CN4CC3)c2-c2ccncc2)cc1` [Example 6′, 4-[(2S,8aS)-2-Chloro-1,2,3,5,6,8a-hexahydroindolizin-7-yl]-2-(4-fluorophenyl)-3-(pyridin-4-yl)-1H-pyrrole], the pIC50 in experiment [1] was 7.57. On to `Fc1ccc(-c2[nH]cc(C3=C[C@@H]4CC5(CN4CC3)OCCO5)c2-c2ccncc2)cc1` [Example 14′, 4-[(8aS)-2,2-Ethylenedioxy-1,2,3,5,6,8a-hexahydroindolizin-7-yl]-2-(4-fluorophenyl)-3-(pyridin-4-yl)-1H-pyrrole], for which the values for the pIC50 in experiment [1] and in experiment [2] were 8.40 and 8.04, respectively. As to `Fc1ccc(-c2[nH]cc(C3=C[C@@H]4CCCN4CC34CC4)c2-c2ccncc2)cc1` [Example 19′, 4-[Cyclopropanespiro-6′-[(8a′S)-1′,2′,3′,5′,6′,8a′-hexahydroindolizin]-7′-yl]-2-(4-fluorophenyl)-3-(pyridin-4-yl)-1H-pyrrole], the pIC50 is 7.36 in experiment [1] and 8.08 in experiment [2]. For `CO[C@H]1C[C@H]2C=C(c3c[nH]c(-c4ccc(F)cc4)c3-c3ccncc3)CCN2C1` [Example 21′, 2-(4-Fluorophenyl)-4-[(2S,8aS)-2-methoxy-1,2,3,5,6,8a-hexahydroindolizin-7-yl)-3-(pyridin-4-yl)-1H-pyrrole], in that order: 7.34 and 7.74. The corresponding values for `C=C1C[C@H]2C=C(c3c[nH]c(-c4ccc(F)cc4)c3-c3ccncc3)CCN2C1` [Example 23′, 2-(4-Fluorophenyl)-4-[(8aS)-2-methylidene-1,2,3,5,6,8a-hexahydroindolizin-7-yl]-3-(pyridin-4-yl)-1H-pyrrole] are 8.43 and 8.42. For `CC1(C)C[C@H]2C=C(c3c[nH]c(-c4ccc(F)cc4)c3-c3ccncc3)CCN2C1` [Example 27′], in that order: 8.42 and 8.85.

Regarding `CS[C@H]1C[C@H]2C=C(c3c[nH]c(-c4ccc(F)cc4)c3-c3ccncc3)CCN2C1` [Example 29′, 2-(4-Fluorophenyl)-4-[(2S,8aS)-2-methylthio-1,2,3,5,6,8a-hexahydroindolizin-7-yl]-3-(pyridin-4-yl)-1H-pyrrole], the pIC50 in experiment [1] was 8.44; in experiment [2], 9.00. Regarding `CCCCS[C@H]1C[C@H]2C=C(c3c[nH]c(-c4ccc(F)cc4)c3-c3ccncc3)CCN2C1` [Example 34′, 4-[(2S,8aS)-2-Butylthio-1,2,3,5,6,8a-hexahydroindolizin-7-yl)-2-(4-fluorophenyl)-3-(pyridin-4yl)-1H-pyrrole], the figures for the pIC50 in experiment [1] and in experiment [2] were 7.34 and 7.31, respectively.

With `CCS[C@H]1C[C@H]2C=C(c3c[nH]c(-c4ccc(F)cc4)c3-c3ccncc3)CCN2C1` [Example 36′, 4-[(2S,8aS)-2-Ethylthio-1,2,3,5,6,8a-hexahydroindolizin-7-yl]-2-(4-fluorophenyl)-3-(pyridin-4-yl)-1H-pyrrole], the figures for the negative-log IC50 (pIC50) in experiment [1] and in experiment [2] were 7.74 and 7.59, respectively. For `CC=C1C[C@H]2C=C(c3c[nH]c(-c4ccc(F)cc4)c3-c3ccncc3)CCN2C1` [Example 37′, 4-[(8aS)-2-Ethylidene-1,2,3,5,6,8a-hexahydroindolizin-7-yl]-2-(4-fluorophenyl)-3-(pyridin-4-yl)-1H-pyrrole], the negative-log IC50 (pIC50) in experiment [1] was 8.00; in experiment [2], 7.24. `Fc1ccc(-c2[nH]cc(C3=CCN(CCc4ccccc4)CC3)c2-c2ccncc2)cc1` [Example 58, 2-(4-Fluorophenyl)-4-(1-phenethyl-1,2,3,6-tetrahydropyridin-4-yl)-3-(pyridin-4-yl)-1H-pyrrole]: the IC50 in experiment [1] came out at 0.089 µM. As for `Fc1ccc(-c2[nH]cc(C3=C[C@@H]4CCCN4CC3)c2-c2ccncc2)cc1` [Example 83, (−)-2-(4-Fluorophenyl)-4-(1,2,3,5,6,8a-hexahydroindolizin-7-yl)-3-(pyridin-4-yl)-1H-pyrrole], the IC50 in experiment [1] came to 0.026 µM.

The record behind these values is patent US7122666B2, “Heteroaryl-substituted pyrrole derivatives, their preparation and their therapeutic uses” (Sankyo Company, Limited, priority 1999, dated 2006).
